From patent US8263603B2, “N3-substituted-N1-sulfonyl-5-fluoropyrimidinone derivatives” (Dow AgroSciences, LLC, priority 2010, dated 2012)

How the values were obtained:
[1] = test system: Mycosphaerella graminicola; anamorph: Septoria tritici; Bayer code SEPTTR; experiment: Fungicidal activity against leaf blotch of wheat, three-day curative (3 DC); assay type: in vivo; conditions: Zymoseptoria tritici, 72 h, wheat plants (variety Yuma), rating of % disease control
Description: (§1) Evaluation of Fungicidal Activity: Leaf Blotch of Wheat (Mycosphaerella graminicola; anamorph: Septoria tritici; Bayer code […]) Wheat plants (variety Yuma) were grown from seed in a greenhouse in 50% mineral soil/50% soil-less Metro mix until the first leaf was fully emerged, with 7-10 seedlings per pot. These plants were inoculated with an aqueous spore suspension of Septoria tritici either prior to or after fungicide treatments. After inoculation the plants were kept in 100% relative humidity (one day in a dark dew chamber followed by two days in a lighted dew chamber) to permit spores to germinate and infect the leaf. The plants were then transferred to a greenhouse for disease to develop. The following table presents the activity of typical compounds of the present disclosure when evaluated in these experiments. The effectiveness of the test compounds in controlling disease was determined by assessing the severity of disease on treated plants, and then converting the severity to percent control based on the level of disease on untreated, inoculated plants. • In each case of Table II the rating scale is as follows: […]

[2] = test system: Mycosphaerella graminicola; anamorph: Septoria tritici; Bayer code SEPTTR; experiment: Fungicidal activity against leaf blotch of wheat, one-day protectant (1 DP); assay type: in vivo; conditions: Zymoseptoria tritici, 24 h, wheat plants (variety Yuma), rating of % disease control
Description: as §1

Compound | melting point [°C] | pest or weed control at 100 ppm [1] [%] | pest or weed control at 100 ppm [2] [%]
COc1ccc(S(=O)(=O)n2cc(F)c(=N)n(Cc3ccccc3)c2=O)cc1 [Compound 5, 3-benzyl-5-fluoro-4-imino-1-(4-methoxyphenylsulfonyl)-3,4-dihydropyrimidin-2(1H)-one] | – | 0 to 25 | 0 to 25
Cn1c(=N)c(F)cn(S(=O)(=O)c2cccs2)c1=O [Compound 2] | 136 to 139 | 76 to 100 | 76 to 100
Cn1c(=N)c(F)cn(S(=O)(=O)c2ccccc2)c1=O [Compound 1, 1-Benzenesulfonyl-5-fluoro-4-imino-3-methyl-3,4-dihydro-1H-pyrimidin-2-one] | 144 | 76 to 100 | 76 to 100
COc1ccc(S(=O)(=O)n2cc(F)c(=N)n(C)c2=O)cc1 [Compound 3] | 158 to 162 | 76 to 100 | 76 to 100
CCn1c(=N)c(F)cn(S(=O)(=O)c2c(Cl)cccc2Cl)c1=O [Compound 9] | 182 to 185 | 76 to 100 | 0 to 25

Now from value to compound, other results behind:

melting point [°C] | Compound | pest or weed control at 100 ppm [1] [%] | pest or weed control at 100 ppm [2] [%]
163 to 166 | CCn1c(=N)c(F)cn(S(=O)(=O)c2ccccc2)c1=O [Compound 6, 1-benzenesulfonyl-5-fluoro-4-imino-3-ethyl-3,4-dihydro-1H-pyrimidin-2-one] | 0 to 25 | 0 to 25
147 to 150 | Cn1c(=N)c(F)cn(S(=O)(=O)c2ccc(Cl)cc2)c1=O [Compound 4] | 76 to 100 | 76 to 100
165 to 168 | CCn1c(=N)c(F)cn(S(=O)(=O)c2ccc(Cl)cc2)c1=O [Compound 7] | 76 to 100 | 51 to 75
107 to 111 | CCn1c(=N)c(F)cn(S(=O)(=O)c2ccc(OC)cc2)c1=O [Compound 8] | 51 to 75 | 0 to 25
